Measurements taken from patent publication US5607934A, “Piperazine derivatives and salts thereof” (Otsuka Pharmaceutical Co., Ltd., priority 1993, dated 1997).
Converted amounts (≈) assume the structure as drawn.

Assays:
[1] = test system: releasing of lysozomal enzyme from the neutrocytes of rat; assay: Inhibitory effect against the releasing of lysozomal enzyme from the neutrocytes of rat; type: cell-based; conditions: rat neutrocytes 5×10^5 cells/ml; FMLP 10^-6 M + cytocharasin B 5 μg/ml; OD540
Method: Inhibitory effect against the releasing of lysozomal enzyme from the neutrocytes of rat
The neutrocytes of rat were samples from the abdominal cavity of rat 16 hours after the administration of 10 ml of 1% casein solution (physiological saline solution).
Reaction of the releasing of lysozomal enzyme from the neutrocytes of rat was determined by means of the method as described in an article written by T. Matsumoto, K. Takeshige and S. Minakami: Biochemical and Biophysical Research Communications, Vol. 88, No. 3, pp 974-979, (1979).
The neutrocytes being sampled were added to Hank's solution so as to make the concentration thereof as 5×10^5 cells/ml, the test compound of piperazine derivative of the present invention was added thereto to make the test group sample. On the other hand, water was added in place of the piperazine derivative of the present invention to make the control group sample. Each of the test group samples and the control group samples were subjected to pre-incubation at 37° C. for 1 minute.
As to the stimulating agents, 10^-6 M of FMLP (formylmethionyl leucyl phenylalanine) and 5 μg/ml of cytocharasin B solution were added to the test solutions. Thus obtained mixture of the solution was reacted by incubating for 15 minutes. After the incubation, the mixture of the solution was subjected to centrifugation at 2,000 rpm for 10 minutes. The supernatant (0.2 ml) was admixed with 0.5 ml of 0.1 M-acetic acid buffer solution (pH 4.5) in which 0.2 mM of phenolphthalein glucuronic acid was dissolved. Then the resulting mixture of the solution was reacted at 37° C. for 5 hours by incubation. After the reaction, 1N-NaOH solution was added to the reaction mixture so as to make the pH value thereof to pH 8 to 9, and the optical absorbance of both test group samples and control group samples were determined at 540 nm (OD540).
The 50% inhibitory concentration (IC50) values were obtained by calculation as the ratio of OD540 of the test group sample to that of the control group sample.

[2] = test system: superoxide radicals (O2^-) released from the peritoneal macrophage cells of guinea pig; assay: Inhibitory effect against superoxide radicals (O2^-) released from the peritoneal macrophage cells of guinea pig by stimulation (FMLP); type: cell-based; conditions: Cavia porcellus, Peritoneal macrophage cell; guinea pig peritoneal macrophages 2×10^6 cells/ml; FMLP 10^-7 M; cytochrome C reduction, OD550
Method: Inhibitory effect against superoxide radicals (O2^-) released from the peritoneal macrophage cells of guinea pig by stimulation:
Mineral oil (15 ml)was intraperitoneally administered to a guinea pig, then 96 hours after the administration, the peritoneal macrophage cells were sampled.
Superoxide radicals (O2^-) were determined by means of reduction of cytochrome C method according to the procedure described in an article written by T. Matsumoto, K. Takeshige and S. Minakami: Biochemical and Biophysical Research Communications, Vol. 88, No. 3, pp. 974-979, (1979).
Into 1 ml of 80 μM-cytochrome C solution, the peritoneal macrophage cells were added to make the final concentration of 2×10^6 cells/ml, then each one of the test compounds of the present invention was added thereto to make the test group sample. On the other hand, water was added in place of the test compound of the present invention to make the control group sample. Each of the test group samples and the control group samples were subjected to pre-incubation at 37° C. for 1 minute.
As to the stimulating agent for releasing superoxide radicals (O2^-), FMLP (formylmethionyl leucyl phenylalanine)was added to each one of the test sample solutions and the control group samples to make the final concentration of FMLP to 10^-7 M, then the sample solutions were subjected to additional reaction by incubation for 1 minute.
Difference between the optical absorbances measured at 550 nm (OD550) of both test group samples and control group samples were determined, the 50% inhibitory concentration (IC50) was obtained by calculating as the ratio of OD550 of the test group sample to that of the control group sample.

[3] = test system: releasing of hydrogen peroxide (H2 O2) from the neutrocyte of abdominal cavity of rat; assay: Inhibitory effect against the releasing of hydrogen peroxide (H2O2) from the neutrocyte of abdominal cavity of rat; type: cell-based, SD-strain rat; conditions: rat neutrocytes 10^6 cells/ml; FMLP 2×10^-6 M; 37° C., 1 hour; OD610
Method: Inhibitory effect against the releasing of hydrogen peroxide (H2 O2) from the neutrocyte of abdominal cavity of rat
1%-Casein solution was administered to the abdominal cavity of a SD-strain rat, then 16 hours after the administration, the neutrocytes were obtained by washing the abdominal cavity. Thus obtained neutrocytes were washed with Hank's solution.
In to a reaction mixture consisting of the following ingredients:
______________________________________
HRP (Horse Radish peroxide)
HEPES [N-(2-Hydroxyethyl)pipera-
zine N'-2-ethanesulfonic acid]
Rat neutrocytes 10^6 cells/ml
the test compound was added, then the whole mixture was incubated at 37° C. for 1 hour, and the mixture was subjected to a centrifugal separation at 2,000 rpm for minutes. After the centrifugal separation, 1 ml of the supernatant was sampled and 10 μl of 1N-NaOH aqueous solution was added thereto. Then, the optical absorbance at 610 nm (OD610) of the supernatant was determined by means of using a spectro-photometer.
The IC50 (50% inhibitory concentration) of the test compound was obtained by calculating as the ratio of OD610 of the test group sample to that of the control group sample.

Row | Structure (SMILES) | IC50 [1] | IC50 [3] | IC50 [2]
1 | CC(C)C[C@H]1C(=O)N[C@](Cc2ccccc2)(C(=O)Nc2nc3ccccc3s2)C(=O)N1O (racemic) [Example 27, (3RS,6SR)-3-(benzothiazol-2-yl)carbamoyl-3-benzyl-1-hydroxy-6-isobutylpiperazine-2,5-dione] | 3 µg/mL | – | 0.25 µg/mL (≈ 0.552 µM)
2 | COc1cccc(CNC(=O)[C@@]2(C)NC(=O)[C@H](CC(C)C)N(O)C2=O)c1 (racemic) [Example 29, (3RS,6SR)-1-hydroxy-6-isobutyl-3-[N-(3-methoxybenzyl)]carbamoyl-3-methylpiperazine-2,5-dione] | 2 µg/mL | 5 µg/mL (≈ 13.8 µM) | 3 µg/mL (≈ 8.26 µM)
3 | COc1cc(C[C@@H]2NC(=O)[C@H](CC(C)C)N(O)C2=O)cc(OC)c1OC (relative stereo) [Example 15] | – | < 3 µg/mL | –
4 | COc1cc(C[C@@H]2NC(=O)[C@@H](CC(C)C)N(O)C2=O)cc(OC)c1OC (relative stereo) [Example 16] | – | < 3 µg/mL | 30 µg/mL (≈ 81.9 µM)
5 | COc1cc(C[C@@H]2NC(=O)[C@H](CC(C)C)N(O)C2=O)cc(OC)c1O (relative stereo) [Example 17] | – | < 3 µg/mL | –
6 | COc1cccc(CNC(=O)[C@]2(Cc3ccccc3)NC(=O)[C@@H](CC(C)C)N(O)C2=O)c1 (relative stereo) [Example 28] | 3 µg/mL | – | 3 µg/mL (≈ 6.83 µM)
7 | CC(C)C[C@@H]1C(=O)N[C@@H](Cc2ccccc2)C(=O)N1O [Example 10, (3S,6R)-3-Benzyl-1-hydroxy-6-isobutylpiperazine-2,5-dione] | – | – | 18 µg/mL (≈ 65.1 µM)
8 | CC(C)C[C@H]1C(=O)N[C@@H](Cc2cc(Cl)c(O)c(Cl)c2)C(=O)N1O [Example 20] | 30 µg/mL | – | 30 µg/mL (≈ 83.1 µM)
9 | CC(C)C[C@@H]1C(=O)N[C@@H](Cc2cc(Cl)c(O)c(Cl)c2)C(=O)N1O [Example 21] | – | 10 µg/mL (≈ 27.7 µM) | –
10 | CC(C)C[C@@H]1NC(=O)[C@H](Cc2c[nH]c3ccccc23)N(O)C1=O [Example 47, (3S,6S)-1-Hydroxy-6-(3-indolylmethyl)-3-isobutylpiperazine-2,5-dione] | – | – | 10 µg/mL (≈ 31.7 µM)
11 | CSCC[C@@H]1NC(=O)[C@@H](Cc2c[nH]c3ccccc23)N(O)C1=O [Example 52] | – | – | 6 µg/mL (≈ 18 µM)
12 | O=C1N[C@@H](COCc2ccccc2)C(=O)N(O)[C@H]1Cc1c[nH]c2ccccc12 [Example 53] | – | – | 30 µg/mL (≈ 79.1 µM)

The next lines start with results.

Row | IC50 [1] | IC50 [3] | Structure (SMILES) | IC50 [2]
13 | – | 5 µg/mL (≈ 14.9 µM) | COc1ccc(C[C@@H]2NC(=O)[C@H](CC(C)C)N(O)C2=O)c(OC)c1 (relative stereo) [Example 18] | –
14 | – | 5 µg/mL (≈ 14.9 µM) | COc1ccc(C[C@@H]2NC(=O)[C@@H](CC(C)C)N(O)C2=O)c(OC)c1 (relative stereo) [Example 19] | 30 µg/mL (≈ 89.2 µM)
15 | – | 3 µg/mL (≈ 9.05 µM) | CCOC(=O)[C@H]1NC(=O)[C@@H](Cc2c[nH]c3ccccc23)N(O)C1=O (relative stereo) [Example 55] | –
16 | – | < 6 µg/mL | CC(C)C[C@H]1C(=O)N[C@@H](Cc2ccccc2)C(=O)N1O [Example 9, (3S, 6s)-3-benzyl-1-hydroxy-6-isobutylpiperazine-2,5-dione] | –
17 | – | 6 µg/mL (≈ 20.5 µM) | CC(C)C[C@@H]1C(=O)N[C@@H](Cc2ccc(O)cc2)C(=O)N1O [Example 11] | –
18 | – | 3 µg/mL (≈ 8.42 µM) | CC(C)C[C@@H]1C(=O)N[C@@H](Cc2cn(Cc3ccccc3)cn2)C(=O)N1O [Example 26] | 6 µg/mL (≈ 16.8 µM)
19 | – | < 3 µg/mL | CC(C)C[C@@H]1NC(=O)[C@@H](Cc2c[nH]c3ccccc23)N(O)C1=O [Example 48, (3S, 6R)-1-Hydroxy-6-(3-indolylmethyl)-3-isobutylpiperazine-2,5-dione] | –
20 | – | < 3 µg/mL | O=C1N[C@@H](Cc2ccccc2)C(=O)N(O)[C@H]1Cc1c[nH]c2ccccc12 [Example 49] | 10 µg/mL (≈ 28.6 µM)
21 | – | < 3 µg/mL | O=C1N[C@@H](Cc2ccccc2)C(=O)N(O)[C@@H]1Cc1c[nH]c2ccccc12 [Example 50] | –
22 | – | 3 µg/mL (≈ 9 µM) | CSCC[C@@H]1NC(=O)[C@H](Cc2c[nH]c3ccccc23)N(O)C1=O [Example 51] | 3 µg/mL (≈ 9 µM)
23 | – | 3 µg/mL (≈ 7.91 µM) | O=C1N[C@@H](COCc2ccccc2)C(=O)N(O)[C@@H]1Cc1c[nH]c2ccccc12 [Example 54] | –
24 | – | 6 µg/mL (≈ 16.4 µM) | O=C1N[C@@H](Cc2ccc(O)cc2)C(=O)N(O)[C@H]1Cc1c[nH]c2ccccc12 [Example 60] | 10 µg/mL (≈ 27.4 µM)
25 | – | < 3 µg/mL | O=C1[C@@H]2CCCN2C(=O)[C@H](Cc2c[nH]c3ccccc23)N1O [Example 64] | –
